The conditions of data set [1]: for mean particle diameter: amorphous solid as isolated and dried; for Particle size: MALVERN mastersizer 2000, dispersant: light liquid paraffin.
The conditions of data set [2]: versus product with particle size of above 100 μm.
For data set [3] the following is noted: 75% relative humidity, 40° C.

Take “(±)sodium-2-[[[4-(3-methoxypropoxy)-3-methyl-pyridinyl]methyl]sulfinyl]1H-benzimidazole [amorphous rabeprazole sodium]”: the mean particle diameter in data set [1] is 10 to 55 μm. Also, in data set [2], the bioavailability result is reported as “better bioavailability”. Also, in data set [3], the stability entry was “stable”.

In data set [1], `COCCCOc1ccnc(C[S+]([O-])c2nc3ccccc3[nH]2)c1C.[Na]` (racemic) [Example 1, (±)sodium-2-[[[4-(3-methoxypropoxy)-3-methyl-pyridinyl]methyl]sulfinyl]1H-benzimidazole] displayed a Particle size of 10 to 50 μm and a mean particle diameter of 10 to 50 μm.

On to `COCCCOc1ccnc(C[S+]([O-])c2nc3ccccc3[nH]2)c1C.[Na]` (racemic) [Example 6 of U.S. Pat. No. 5045552, (±)sodium-2-[[[4-(3-methoxypropoxy)-3-methyl-pyridinyl]methyl]sulfinyl]1H-benzimidazole, reference compound], for which the Particle size in data set [1] lay within 80 to 150 μm.

In the case of `COCCCOc1ccnc(C[S+]([O-])c2nc3ccccc3[nH]2)c1C.[Na]` (racemic) [Example 2, (±)sodium-2-[[[4-(3-methoxypropoxy)-3-methyl-pyridinyl]methyl]sulfinyl]1H-benzimidazole], in data set [1], the Particle size is recorded as 15 to 55 μm and the mean particle diameter is given as 15 to 55 μm.
